Experimental data taken from PubChem BioAssay AID1845211 (Molecular Pharmacology Branch, DTP, NCI, 2023).
pIC50: −log10 of the molar value.

System: NCI-H322M multicellular tumor spheroids, viability (% test/control)
Experiment: Anticancer human tumor NCI-H322M cell line growth inhibition;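 on viability, T/C: spheroids exposed to compound for seven days before readout; 100% = DMSO vehicle control wells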
Conditions: for pIC50: curve of first compound; for viability, T/C: stronger effect = lower value
How it was run: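 Single agents and combinations were tested on spheroids built from tumor cells plus HUVEC and hMSC, at half-log dilutions starting at or near clinical Cmax, else 10 microM; final DMSO 0.25% (v/v).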

[1] = second compound 30 pM, first compound 0.0316 µM
[2] = second compound 30 pM, first compound 0.1 µM
[3] = second compound 30 pM, first compound 0.316 µM
[4] = second compound 30 pM, first compound 1 µM
[5] = second compound 30 pM, first compound 3.16 µM
[6] = second compound 30 pM, first compound 10 µM
[7] = second compound 94.9 pM, first compound 0.0316 µM
[8] = second compound 94.9 pM, first compound 0.1 µM
[9] = second compound 94.9 pM, first compound 0.316 µM
[10] = second compound 94.9 pM, first compound 1 µM
[11] = second compound 94.9 pM, first compound 3.16 µM
[12] = second compound 94.9 pM, first compound 10 µM
[13] = second compound 0.0003 µM, first compound 0.0316 µM
[14] = second compound 0.0003 µM, first compound 0.1 µM
[15] = second compound 0.0003 µM, first compound 0.316 µM
[16] = second compound 0.0003 µM, first compound 1 µM
[17] = second compound 0.0003 µM, first compound 3.16 µM
[18] = second compound 0.0003 µM, first compound 10 µM
[19] = second compound 0.000949 µM, first compound 0.0316 µM
[20] = second compound 0.000949 µM, first compound 0.1 µM
[21] = second compound 0.000949 µM, first compound 0.316 µM
[22] = second compound 0.000949 µM, first compound 1 µM
[23] = second compound 0.000949 µM, first compound 3.16 µM
[24] = second compound 0.000949 µM, first compound 10 µM
[25] = second compound 0.003 µM, first compound 0.0316 µM
[26] = second compound 0.003 µM, first compound 0.1 µM
[27] = second compound 0.003 µM, first compound 0.316 µM
[28] = second compound 0.003 µM, first compound 1 µM
[29] = second compound 0.003 µM, first compound 3.16 µM
[30] = second compound 0.003 µM, first compound 10 µM
[31] = second compound 1 µM, first compound 0.00949 µM
[32] = second compound 1 µM, first compound 0.03 µM
[33] = second compound 1 µM, first compound 0.0949 µM
[34] = second compound 1 µM, first compound 0.3 µM
[35] = second compound 1 µM, first compound 0.949 µM
[36] = second compound 1 µM, first compound 3 µM
[37] = second compound 3.16 µM, first compound 0.00949 µM
[38] = second compound 3.16 µM, first compound 0.03 µM
[39] = second compound 3.16 µM, first compound 0.0949 µM
[40] = second compound 3.16 µM, first compound 0.3 µM
[41] = second compound 3.16 µM, first compound 0.949 µM
[42] = second compound 3.16 µM, first compound 3 µM
[43] = second compound 10 µM, first compound 0.00949 µM
[44] = second compound 10 µM, first compound 0.03 µM
[45] = second compound 10 µM, first compound 0.0949 µM
[46] = second compound 10 µM, first compound 0.3 µM
[47] = second compound 10 µM, first compound 0.949 µM
[48] = second compound 10 µM, first compound 3 µM
[49] = second compound 31.6 µM, first compound 0.00949 µM
[50] = second compound 31.6 µM, first compound 0.03 µM
[51] = second compound 31.6 µM, first compound 0.0949 µM
[52] = second compound 31.6 µM, first compound 0.3 µM
[53] = second compound 31.6 µM, first compound 0.949 µM
[54] = second compound 31.6 µM, first compound 3 µM
[55] = second compound 100 µM, first compound 0.00949 µM
[56] = second compound 100 µM, first compound 0.03 µM
[57] = second compound 100 µM, first compound 0.0949 µM
[58] = second compound 100 µM, first compound 0.3 µM
[59] = second compound 100 µM, first compound 0.949 µM
[60] = second compound 100 µM, first compound 3 µM

## CC(C)n1c(=O)n(C)c2cnc3cc(F)c(-c4ccc(OCCCN5CCCCC5)nc4)cc3c21 + COc1cc2c(cc1O)CCNC21CSC2c3c(OC(C)=O)c(C)c4c(c3C(COC1=O)N1C(O)C3Cc5cc(C)c(OC)c(O)c5C(C21)N3C)OCO4
Second compound 30 pM
  pIC50: < 5.00
Second compound 94.9 pM
  pIC50: < 5.00
Second compound 0.0003 µM
  pIC50: < 5.00
Second compound 0.000949 µM
  pIC50: 6.56
Second compound 0.003 µM
  pIC50: > 7.50
[1]
  viability, T/C: 74.8%
[2]
  viability, T/C: 73.8%
[3]
  viability, T/C: 74.4%
[4]
  viability, T/C: 62.8%
[5]
  viability, T/C: 64.2%
[6]
  viability, T/C: 54.7%
[7]
  viability, T/C: 77.3%
[8]
  viability, T/C: 64.4%
[9]
  viability, T/C: 85.3%
[10]
  viability, T/C: 69%
[11]
  viability, T/C: 61.4%
[12]
  viability, T/C: 62.5%
[13]
  viability, T/C: 58.5%
[14]
  viability, T/C: 59.9%
[15]
  viability, T/C: 58.3%
[16]
  viability, T/C: 72.1%
[17]
  viability, T/C: 68.5%
[18]
  viability, T/C: 60%
[19]
  viability, T/C: 63.8%
[20]
  viability, T/C: 69.2%
[21]
  viability, T/C: 45.3%
[22]
  viability, T/C: 42.2%
[23]
  viability, T/C: 46.6%
[24]
  viability, T/C: 57.1%
[25]
  viability, T/C: 5.32%
[26]
  viability, T/C: 5.15%
[27]
  viability, T/C: 3.05%
[28]
  viability, T/C: 3.74%
[29]
  viability, T/C: 6.35%
[30]
  viability, T/C: 6.1%

## COc1ccc([C@@H](O)c2cc(-c3ncnc4cc(N5CCOCC5)ccc34)c(F)cc2Cl)nn1 + COc1cc2c(cc1O)CCNC21CSC2c3c(OC(C)=O)c(C)c4c(c3C(COC1=O)N1C(O)C3Cc5cc(C)c(OC)c(O)c5C(C21)N3C)OCO4
Second compound 30 pM
  pIC50: 5.63
Second compound 94.9 pM
  pIC50: 5.79
Second compound 0.0003 µM
  pIC50: 5.85
Second compound 0.000949 µM
  pIC50: 6.36
Second compound 0.003 µM
  pIC50: > 7.50
[1]
  viability, T/C: 101%
[2]
  viability, T/C: 75.9%
[3]
  viability, T/C: 79.1%
[4]
  viability, T/C: 62.1%
[5]
  viability, T/C: 45.3%
[6]
  viability, T/C: 30.4%
[7]
  viability, T/C: 96%
[8]
  viability, T/C: 89.1%
[9]
  viability, T/C: 82.2%
[10]
  viability, T/C: 55.8%
[11]
  viability, T/C: 41.5%
[12]
  viability, T/C: 32%
[13]
  viability, T/C: 106%
[14]
  viability, T/C: 94.1%
[15]
  viability, T/C: 71.1%
[16]
  viability, T/C: 56.4%
[17]
  viability, T/C: 38.2%
[18]
  viability, T/C: 26.8%
[19]
  viability, T/C: 84.2%
[20]
  viability, T/C: 75.7%
[21]
  viability, T/C: 58.7%
[22]
  viability, T/C: 28.3%
[23]
  viability, T/C: 5.57%
[24]
  viability, T/C: 2.25%
[25]
  viability, T/C: 3.77%
[26]
  viability, T/C: 3.3%
[27]
  viability, T/C: 5.4%
[28]
  viability, T/C: 1.15%
[29]
  viability, T/C: 1.98%
[30]
  viability, T/C: 2.69%

## CNCc1ccc(-c2cc(-c3nc(-c4ccc(S(=O)(=O)C(C)C)cc4)cnc3N)on2)cc1 + Cn1nnc2c(C(N)=O)ncn2c1=O
Second compound 1 µM
  pIC50: < 5.52
Second compound 3.16 µM
  pIC50: < 5.52
Second compound 10 µM
  pIC50: < 5.52
Second compound 31.6 µM
  pIC50: < 5.52
Second compound 100 µM
  pIC50: < 5.52
[31]
  viability, T/C: 100%
[32]
  viability, T/C: 104%
[33]
  viability, T/C: 82.1%
[34]
  viability, T/C: 84.1%
[35]
  viability, T/C: 75.7%
[36]
  viability, T/C: 83.3%
[37]
  viability, T/C: 79.5%
[38]
  viability, T/C: 76.2%
[39]
  viability, T/C: 75%
[40]
  viability, T/C: 86.9%
[41]
  viability, T/C: 81.4%
[42]
  viability, T/C: 87.6%
[43]
  viability, T/C: 78.7%
[44]
  viability, T/C: 89%
[45]
  viability, T/C: 77.6%
[46]
  viability, T/C: 99.2%
[47]
  viability, T/C: 81.1%
[48]
  viability, T/C: 75.4%
[49]
  viability, T/C: 110%
[50]
  viability, T/C: 76.2%
[51]
  viability, T/C: 78.3%
[52]
  viability, T/C: 76.3%
[53]
  viability, T/C: 68.4%
[54]
  viability, T/C: 66%
[55]
  viability, T/C: 95.6%
[56]
  viability, T/C: 87%
[57]
  viability, T/C: 81.7%
[58]
  viability, T/C: 71%
[59]
  viability, T/C: 70.1%
[60]
  viability, T/C: 58.3%

## Cn1ncnc1[C@H]1c2n[nH]c(=O)c3cc(F)cc(c23)N[C@@H]1c1ccc(F)cc1 + Cn1nnc2c(C(N)=O)ncn2c1=O
Second compound 1 µM
  pIC50: < 5.52
Second compound 3.16 µM
  pIC50: < 5.52
Second compound 10 µM
  pIC50: < 5.52
Second compound 31.6 µM
  pIC50: < 5.52
Second compound 100 µM
  pIC50: < 5.52
[31]
  viability, T/C: 89.4%
[32]
  viability, T/C: 79.4%
[33]
  viability, T/C: 87.8%
[34]
  viability, T/C: 81.2%
[35]
  viability, T/C: 88.8%
[36]
  viability, T/C: 70%
[37]
  viability, T/C: 77.9%
[38]
  viability, T/C: 113%
[39]
  viability, T/C: 84.3%
[40]
  viability, T/C: 74.3%
[41]
  viability, T/C: 81.5%
[42]
  viability, T/C: 67.8%
[43]
  viability, T/C: 83.1%
[44]
  viability, T/C: 71%
[45]
  viability, T/C: 73.8%
[46]
  viability, T/C: 76.2%
[47]
  viability, T/C: 77.1%
[48]
  viability, T/C: 59.3%
[49]
  viability, T/C: 90.3%
[50]
  viability, T/C: 74.1%
[51]
  viability, T/C: 78.8%
[52]
  viability, T/C: 76.5%
[53]
  viability, T/C: 70.9%
[54]
  viability, T/C: 69.3%
[55]
  viability, T/C: 92.2%
[56]
  viability, T/C: 68.8%
[57]
  viability, T/C: 64.5%
[58]
  viability, T/C: 68.9%
[59]
  viability, T/C: 59.5%
[60]
  viability, T/C: 57.7%

## O=C(c1cc(Cc2n[nH]c(=O)c3ccccc23)ccc1F)N1CCN(C(=O)C2CC2)CC1 + Cn1nnc2c(C(N)=O)ncn2c1=O
Second compound 1 µM
  pIC50: < 4.52
Second compound 3.16 µM
  pIC50: < 4.52
Second compound 10 µM
  pIC50: < 4.52
Second compound 31.6 µM
  pIC50: < 4.52
Second compound 100 µM
  pIC50: < 4.52
[33]
  viability, T/C: 84.3%
[34]
  viability, T/C: 93.5%
[35]
  viability, T/C: 88.7%
[36]
  viability, T/C: 92.5%
Second compound 1 µM, first compound 9.49 µM
  viability, T/C: 78%
Second compound 1 µM, first compound 30 µM
  viability, T/C: 94%
[39]
  viability, T/C: 86.1%
[40]
  viability, T/C: 81.5%
[41]
  viability, T/C: 80.1%
[42]
  viability, T/C: 79.9%
Second compound 3.16 µM, first compound 9.49 µM
  viability, T/C: 88.2%
Second compound 3.16 µM, first compound 30 µM
  viability, T/C: 84.6%
[45]
  viability, T/C: 85.4%
[46]
  viability, T/C: 90.7%
[47]
  viability, T/C: 85.7%
[48]
  viability, T/C: 78.1%
Second compound 10 µM, first compound 9.49 µM
  viability, T/C: 80%
Second compound 10 µM, first compound 30 µM
  viability, T/C: 73.5%
[51]
  viability, T/C: 105%
[52]
  viability, T/C: 87.5%
[53]
  viability, T/C: 86.1%
[54]
  viability, T/C: 93.1%
Second compound 31.6 µM, first compound 9.49 µM
  viability, T/C: 84.5%
Second compound 31.6 µM, first compound 30 µM
  viability, T/C: 93.6%
[57]
  viability, T/C: 76.8%
[58]
  viability, T/C: 82.4%
[59]
  viability, T/C: 96.4%
[60]
  viability, T/C: 86.8%
Second compound 100 µM, first compound 9.49 µM
  viability, T/C: 75.2%
Second compound 100 µM, first compound 30 µM
  viability, T/C: 71.4%
